Results taken from patent US9708334B2, “Substituted 2,4,5,6-tetrahydropyrrolo[3,4-c]pyrazole and 4,5,6,7-tetrahydro-2H-pyrazolo[4,3-c]pyridine compounds as GlyT1 inhibitors” (DART NEUROSCIENCE (CAYMAN) LTD., priority 2014, dated 2017).

What follows are compounds tested against T1, GlyT1 (Homo sapiens, UniProt P48067) (assay: Glycine Transporter 1 (GlyT1) uptake assay, scintillation proximity assay of [14C]-glycine uptake). Settings: SPA, four parameter logistic fit, read-out: GlyT1 (pIC50) (converted).
T1 construct: expressed in transfected cells
T1 sequence (P48067 1-706): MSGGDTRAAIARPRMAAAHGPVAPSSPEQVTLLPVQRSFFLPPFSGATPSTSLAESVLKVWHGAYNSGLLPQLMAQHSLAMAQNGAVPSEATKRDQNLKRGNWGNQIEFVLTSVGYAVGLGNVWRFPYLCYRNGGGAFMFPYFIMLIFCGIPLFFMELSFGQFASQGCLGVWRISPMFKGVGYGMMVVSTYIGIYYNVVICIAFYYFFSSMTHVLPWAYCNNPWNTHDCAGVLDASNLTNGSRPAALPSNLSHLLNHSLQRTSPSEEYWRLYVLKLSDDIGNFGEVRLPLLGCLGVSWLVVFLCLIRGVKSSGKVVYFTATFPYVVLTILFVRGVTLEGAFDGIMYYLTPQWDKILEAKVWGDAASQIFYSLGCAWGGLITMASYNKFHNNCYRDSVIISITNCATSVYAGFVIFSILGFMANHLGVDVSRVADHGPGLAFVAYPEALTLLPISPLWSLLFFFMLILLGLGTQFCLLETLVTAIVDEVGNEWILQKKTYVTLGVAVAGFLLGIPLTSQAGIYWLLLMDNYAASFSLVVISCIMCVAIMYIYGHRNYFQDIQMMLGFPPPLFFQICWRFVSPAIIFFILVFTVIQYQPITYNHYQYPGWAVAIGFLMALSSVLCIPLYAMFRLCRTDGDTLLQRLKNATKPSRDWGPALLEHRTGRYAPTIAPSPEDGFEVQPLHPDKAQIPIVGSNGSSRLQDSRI
Assay type: cell-based
Outline: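 IC50 values derive from four-parameter logistic curves fitted to dose-response data. Uptake of [14C]-glycine measured in scintillation proximity format.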

Row | Compound | IC50
1 | CS(=O)(=O)c1ccc(-c2cccc(F)c2)c(C(=O)N2Cc3cn(-c4ccc(F)cn4)nc3C2)c1 [Example 107, 5-Fluoro-2-{5-[2-(3-fluorophenyl)-5-methanesulfonylbenzoyl]-2H 4H 5H 6H-pyrrolo[3,4-c]pyrazol-2-yl}pyridine] | < 100 nM
2 | Cc1cccc(-n2cc3c(n2)CN(C(=O)c2cc(S(C)(=O)=O)ccc2N2CCC(F)(F)CC2)C3)c1 [Example 110, 4 4-Difluoro-1-{4-methanesulfonyl-2-[2-(3-methylphenyl)-2H 4H 5H 6H-pyrrolo[3,4-c]pyrazole-5-carbonyl]phenyl}piperidine] | < 100 nM
3 | CCS(=O)(=O)c1ccc(N2CCC(F)(F)CC2)c(C(=O)N2Cc3cn(-c4cncc(F)c4)nc3C2)c1 [Example 112] | < 100 nM
4 | CCS(=O)(=O)c1ccc(O[C@@H](C)C(F)(F)F)c(C(=O)N2Cc3cn(-c4ccnc(C)c4)nc3C2)c1 [Example 113, 4-{5-[5-(Ethanesulfonyl)-2-{[(2S)-1 1 1-trifluoropropan-2-yl]oxy}benzoyl]-2H 4H 5H 6H-pyrrolo[3,4-c]pyrazol-2-yl}-2-methylpyridine] | < 100 nM
5 | CCS(=O)(=O)c1ccc(O[C@@H](C)C(F)(F)F)c(C(=O)N2Cc3cn(-c4cncc(F)c4)nc3C2)c1 [Example 114, 3-{5-[5-(Ethanesulfonyl)-2-{[(2S)-1 1 1-trifluoropropan-2-yl]oxy}benzoyl]-2H 4H 5H 6H-pyrrolo[3,4-c]pyrazol-2-yl}-5-fluoropyridine] | < 100 nM
6 | CS(=O)(=O)c1ccc(N2CCCCC2)c(C(=O)N2Cc3cn(-c4ccc(F)cn4)nc3C2)c1 [Example 115, 5-Fluoro-2-{5-[5-methanesulfonyl-2-(piperidin-1-yl)benzoyl]-2H 4H 5H 6H-pyrrolo[3,4-c]pyrazol-2-yl}pyridine] | < 100 nM
7 | Cc1cc(-n2cc3c(n2)CN(C(=O)c2cc(S(C)(=O)=O)ccc2N2CCCCC2)C3)ccn1 [Example 117, 4-{5-[5-Methanesulfonyl-2-(piperidin-1-yl)benzoyl]-2H 4H 5H 6H-pyrrolo[3,4-c]pyrazol-2-yl}-2-methylpyridine] | < 100 nM

More lines, now with the values ahead:

Row | IC50 | Compound
8 | < 100 nM | CS(=O)(=O)c1ccc(-c2cccc(F)c2)c(C(=O)N2Cc3cn(-c4cncc(F)c4)nc3C2)c1 [Example 108, 3-Fluoro-5-{5-[2-(3-fluorophenyl)-5-methanesulfonylbenzoyl]-2H 4H 5H 6H-pyrrolo[3,4-c]pyrazol-2-yl}pyridine]
9 | < 100 nM | Cc1cc(-n2cc3c(n2)CN(C(=O)c2cc(S(C)(=O)=O)ccc2-c2cccc(F)c2)C3)ccn1 [Example 109, 4-{5-[2-(3-Fluorophenyl)-5-methanesulfonylbenzoyl]-2H 4H 5H 6H-pyrrolo[3,4-c]pyrazol-2-yl}-2-methylpyridine]
10 | < 100 nM | CCS(=O)(=O)c1ccc(N2CCC(F)(F)CC2)c(C(=O)N2Cc3cn(-c4ccnc(C)c4)nc3C2)c1 [Example 111, 4-{5-[2-(4 4-Difluoropiperidin-1-yl)-5-(ethanesulfonyl)benzoyl]-2H 4H 5H 6H-pyrrolo[3,4-c]pyrazol-2-yl}-2-methylpyridine]
11 | < 100 nM | CS(=O)(=O)c1ccc(N2CCCCC2)c(C(=O)N2Cc3cn(-c4cncc(F)c4)nc3C2)c1 [Example 116, 3-Fluoro-5-{5-[5-methanesulfonyl-2-(piperidin-1-yl)benzoyl]-2H 4H 5H 6H-pyrrolo[3,4-c]pyrazol-2-yl}pyridine]
12 | 100 to 1000 nM | CS(=O)(=O)c1ccc(OCC2CC2)c(C(=O)N2Cc3cn(-c4ccccc4)nc3C2)c1 [Example 118, 5-[2-(Cyclopropylmethoxy)-5-methanesulfonylbenzoyl]-2-phenyl-2H 4H 5H 6H-pyrrolo[3,4-c]pyrazole]
13 | < 100 nM | CS(=O)(=O)c1ccc(OCC2CC2)c(C(=O)N2Cc3cn(-c4ccccc4F)nc3C2)c1 [Example 119, 5-[2-(Cyclopropylmethoxy)-5-methanesulfonylbenzoyl]-2-(2-fluorophenyl)-2H 4H 5H 6H-pyrrolo[3,4-c]pyrazole]
